Here are results for 2 molecules from patent US12358897B2, “Compounds and method of treating COVID-19” (Pfizer Inc., priority 2020, dated 2025).

The subject of test [1] is SARS-CoV-2 (USA_WA1/2020) in VeroE6 cells enriched for hACE2 expression. Kind of test: microbe, parasite or virus in culture. Type of test: cell-based. The following applies: Severe acute respiratory syndrome coronavirus 2, Vero C1008, 72 h, read-out: Geometric Mean EC50.
For test [2], the target named is T1, full-length SARS-CoV-2 3CL protease (Severe acute respiratory syndrome coronavirus 2, UniProt P0DTD1).
T1 construct: measures the activity of full-length SARS-CoV-2 3CL protease
In words: SARS-CoV-2 Coronavirus 3C Protease FRET Assay (Dabcyl-KTSAVLQ-SGFRKME-Edans substrate). In kind it is biochemical. The following applies: 15 nM enzyme, 25 μM peptide substrate, 60 minutes at 23° C.; Morrison equation fit; read-out: Geometric Mean Ki.

pEC50, pKi: −log10 of the molar value.

One may read the pEC50 as the EC50 on a negative log10 scale, so that one unit is a factor of ten. In general, pKi refers to the Ki on a negative log10 scale, so that one unit is a factor of ten. On to `COc1cccc2[nH]c(C(=O)N[C@@H](CC(C)C)C(=O)N[C@@H](C[C@@H]3CCNC3=O)C(=O)COC(=O)c3c(C)nc(C)nc3C)cc12` [Example 70, (3S)-3-({N-[(4-methoxy-1H-indol-2-yl)carbonyl]-L-leucyl}amino)-2-oxo-4-[(3S)-2-oxopyrrolidin-3-yl]butyl 2,4,6-trimethylpyrimidine-5-carboxylate], for which the pEC50 in test [1] is 5.32. Also, in test [2], the negative-log Ki (pKi) was 8.23.
`COc1cccc2[nH]c(C(=O)N[C@@H](CC(C)C)C(=O)N[C@@H](C[C@@H]3CCNC3=O)C(=O)COC(=O)c3c(C)ncnc3C)cc12` [Example 71, (3S)-3-({N-[(4-methoxy-1H-indol-2-yl)carbonyl]-L-leucyl}amino)-2-oxo-4-[(3S)-2-oxopyrrolidin-3-yl]butyl 4,6-di methylpyrimidine-5-carboxylate]: the pEC50 in test [1] was 6.50. Also, the pKi in test [2] is 9.03.
